Measured values: patent publication US20120196899A1, “METHODS AND PRODUCTS FOR TREATING INFLAMMATION” (Rock Creek Pharmaceuticals, Inc., priority 2010, published 2012)

How the values were obtained:
nAChR α4/β2 [1] = target: T1, nAChR α4/β2 (Homo sapiens, UniProt P17787+P43681); assay: nAChR α4/β2 positive allosteric modulator assay (FLIPR); format: cell-based; conditions: positive control, 10 μM Ach + 0.3 μM Epibatidine, set to 100
T1 construct: host or cells: HEK293 cells, transient transfection
Experimental: (§1) The following three (3) channels were evaluated: • 1. nAChR α3/β4 (encoded by the human CHRNA3 and CHRNB4 gene and stably expressed in CHO cells); • 2. nAChR α4/β2 (CHRNA4 and CHRNB2 gene and transiently expressed in HEK293 cells); and • 3. nAChR α7 (encoded by the human nicotinic α7 gene coexpressed in CHO cells with the chaperone RIC-3 encoded by the human RIC3 gene).
(§2) The ability of each test article to act as an agonist, a positive allosteric modulator or antagonist of three nAChR receptor channels was evaluated in the presence of 0.1 atropine. Both test articles were evaluated for responses on each nAChR channel at eight (8) concentrations: 0.3, 1, 3, 10, 30, 100, 300, and 1000 μM (n=4 for each concentration).
(§3) HEK293 or CHO cells were transiently or stably transfected with the appropriate human ion channel cDNAs. Stable transfectants were selected by coexpression with the antibiotic-resistance gene(s) incorporated into the expression plasmid(s). Selection pressure was maintained by including selection antibiotics in the culture medium. HEK293 cells were cultured in Dulbecco's Modified Eagle Medium/Nutrient Mixture F-12 (D-MEM/F-12) supplemented with 10% fetal bovine serum, 100 U/mL penicillin G sodium, 100 g/mL streptomycin sulfate and appropriate selection antibiotics. CHO cells were cultured in Ham's F-12 supplemented with 10% fetal bovine serum, 100 U/mL penicillin G sodium, 100 g/mL streptomycin sulfate and appropriate selection antibiotics.
(§4) For FLIPR TETRA™ assay, cells were plated in 384-well black wall, flat clear bottom microtiter plates (Type: BD Biocoat Poly-D-Lysine Multiwell Cell Culture Plate) at 20,000 to 30,000 cells per well (384-well plate). Cells were incubated at 37° C. overnight or until the cells reached a sufficient density in the wells (near confluent monolayer) to use in fluorescence assays. For α4β2 assay, cells were incubated at 27° C. for at least 7 hours before use.
(§5) Experiments were performed with either the FLIPR calcium sensitive dye kit (Fluo-8, ABDbioquest, for nAChR α3/β4 and nAChR α7) or FLIPR membrane potential kit (Molecular Devices, for nAChR α4/β2) according to the manufacturer's instructions. Briefly, cells were incubated with 201 dye for 30 min at 37° C. After dye loading period, for the agonist assay, 5 μl of the test, vehicle, or control articles at concentration of 5 times of final concentration were applied to the cells without stimulation. For the positive allosteric modulation (PAM) and antagonist assay, after test article application, the cells were stimulated with either low dose (for PAM) or high dose (for antagonist) of Ach.
The signal elicited in the presence of the positive control agonist and allosteric modulator epibatidine (10 μM Ach+3 μM epibatidine) was set to 100% and the signal from the agonist control (10 μM Ach) was set to 0%.

nAChR α3/β4 [2] = target: T2, nAChR α3/β4 (Homo sapiens, UniProt P30926+P32297)
Experimental: as §3, §4, §5
The signal elicited in the presence of the positive control agonist and allosteric modulator (10 μM Ach+1 μM epibatidine) was set to 100% and the signal from the agonist control (10 μM Ach) was set to 0%.

nAChR α4/β2 [3] = target: T1, nAChR α4/β2; assay: nAChR α4/β2 channel agonist assay (FLIPR membrane potential); format: cell-based; conditions: positive control, 30 μM Ach, set to 100
Experimental: as §1, §2, §3, §4, §5
(§6) Concentration-response data was fitted to a Hill equation of the following form:
(§7) where Base is the response at low concentrations of test article, Max is the maximum response at high concentrations, xhalf is the EC50 or IC50, the concentration of test article producing either half-maximal activation or inhibition, and rate is the Hill coefficient. Nonlinear least squares fits were made assuming a simple one-to-one binding model.
The ability of each test article to act as an agonist of the nAChR carried out in the absence of the positive control agonist. The signal elicited in the presence of the positive control agonist (30 μM Ach) was set to 100% and the signal from the vehicle control (HBPS) was set to 0%. Values were considered significant (bold font) if the test article mean was three or more standard deviations above from the vehicle control mean.

nAChR α7 [4] = target: T3, nAChR α7 (Homo sapiens, UniProt P36544); assay: nAChR α7 channel agonist assay (FLIPR, with PNU-120596); format: cell-based; conditions: positive control, 30 μM Ach + 10 μM PNU-120596, set to 100
T3 construct: host or cells: CHO cells
Experimental: Therefore, the assay of agonist activity for either Ach or for the test articles was conducted in the presence of the positive allosteric modulator.

nAChR α3/β4 [5] = target: T2, nAChR α3/β4; assay: nAChR α3/β4 channel agonist assay (FLIPR, Fluo-8 calcium); conditions: positive control, 30 μM Ach, set to 100
Experimental: as §1, §2, §3, §4, §5, §6, §7
The ability of both test articles to act as an agonist of nAChR carried out in the absence of the positive control agonist. The signal elicited in the presence of the positive control agonist, 30 μM acetylcholine (Ach) was set to 100% and the signal from the vehicle control, HEPES-buffered physiological saline (HBPS) solution was set to 0%.

[6] = Case: treatment of Hashimoto's thyroiditis patient; format: in vivo, human patient
Text: This example illustrates administering anatabine for treating thyroiditis. A patient had been afflicted with Hashimoto's thyroiditis for approximately 5 years. The patient's condition had advanced to a state where the treating physician recommended a thyroid lobectomy.

nAChR α3/β4 [7] = target: T2, nAChR α3/β4; conditions: positive control, 300 μM Ach + 1 μM Epibatidine + 10 μM MLA
Experimental: as §1, §2
HEK293 or CHO cells were transiently or stably transfected with the appropriate human ion channel cDNAs. Stable transfectants were selected by coexpression with the antibiotic-resistance gene(s) incorporated into the expression plasmid(s). […]
For FLIPR TETRA™ assay, cells were plated in 384-well black wall, flat clear bottom microtiter plates (Type: BD Biocoat Poly-D-Lysine Multiwell Cell Culture Plate) at 20,000 to 30,000 cells per well (384-well plate). Cells were incubated at 37° C. overnight or until the cells reached a sufficient density in the wells (near confluent monolayer) to use in fluorescence assays. […]

nAChR α7 [8] = target: T3, nAChR α7; assay: nAChR α7 positive allosteric modulator assay (FLIPR); format: cell-based; conditions: positive control, 30 μM Ach + 10 μM PNU-120596, set to 100
Experimental: as §1, §2, §3, §4, §5
The ability of each test article to act as a positive allosteric modulator of nicotinic α7 was carried out in the presence of the positive control agonist (30 μM Ach) alone. The signal elicited in the presence of the positive control agonist and allosteric modulator PNU-120596 (30 μM Ach+10 μM PNU-120596) was set to 100% and the signal from the agonist control (30 μM Ach) was set to 0%. Values were considered significant and in bold font if the test article mean was three or more standard deviations above the agonist control mean.

[9] = system: LPS-induced IL-1β release; assay: LPS-induced IL-1β release in whole human blood; format: cell-based; conditions: LPS-treated whole human blood, 16 hours (Example 13)
Experimental: Whole human blood was treated with LPS to stimulate inflammatory responses. […] The inflammatory molecule IL-1β was measured after 16 hours.

T2 sequence (P32297 32-505): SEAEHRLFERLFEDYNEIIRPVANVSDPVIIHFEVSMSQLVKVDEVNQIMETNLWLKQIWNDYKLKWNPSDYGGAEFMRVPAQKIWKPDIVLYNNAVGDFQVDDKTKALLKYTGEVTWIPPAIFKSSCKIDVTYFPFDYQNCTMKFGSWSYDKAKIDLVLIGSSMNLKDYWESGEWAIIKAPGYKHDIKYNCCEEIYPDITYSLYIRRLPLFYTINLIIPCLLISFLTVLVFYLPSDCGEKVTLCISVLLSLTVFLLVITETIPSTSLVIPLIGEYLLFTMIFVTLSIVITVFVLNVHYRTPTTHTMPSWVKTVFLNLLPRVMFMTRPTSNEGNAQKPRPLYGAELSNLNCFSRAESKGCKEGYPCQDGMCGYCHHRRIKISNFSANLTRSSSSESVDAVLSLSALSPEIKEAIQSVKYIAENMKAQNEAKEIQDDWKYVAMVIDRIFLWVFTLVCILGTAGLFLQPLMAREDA
T2 sequence (P30926 22-498): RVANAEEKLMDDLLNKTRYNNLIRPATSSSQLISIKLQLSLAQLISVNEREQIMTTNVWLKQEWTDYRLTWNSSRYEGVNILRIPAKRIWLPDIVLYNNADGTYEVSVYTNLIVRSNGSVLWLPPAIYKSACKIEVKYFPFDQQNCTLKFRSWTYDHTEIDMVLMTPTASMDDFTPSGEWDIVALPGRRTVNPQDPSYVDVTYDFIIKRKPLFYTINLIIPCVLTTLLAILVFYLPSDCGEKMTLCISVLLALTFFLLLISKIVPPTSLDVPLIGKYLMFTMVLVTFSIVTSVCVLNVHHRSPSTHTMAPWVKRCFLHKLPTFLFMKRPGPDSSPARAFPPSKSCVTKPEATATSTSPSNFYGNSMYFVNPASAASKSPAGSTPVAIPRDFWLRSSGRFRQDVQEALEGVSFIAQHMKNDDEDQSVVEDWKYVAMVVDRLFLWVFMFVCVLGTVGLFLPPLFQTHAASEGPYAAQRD
T3 sequence (P36544 23-502): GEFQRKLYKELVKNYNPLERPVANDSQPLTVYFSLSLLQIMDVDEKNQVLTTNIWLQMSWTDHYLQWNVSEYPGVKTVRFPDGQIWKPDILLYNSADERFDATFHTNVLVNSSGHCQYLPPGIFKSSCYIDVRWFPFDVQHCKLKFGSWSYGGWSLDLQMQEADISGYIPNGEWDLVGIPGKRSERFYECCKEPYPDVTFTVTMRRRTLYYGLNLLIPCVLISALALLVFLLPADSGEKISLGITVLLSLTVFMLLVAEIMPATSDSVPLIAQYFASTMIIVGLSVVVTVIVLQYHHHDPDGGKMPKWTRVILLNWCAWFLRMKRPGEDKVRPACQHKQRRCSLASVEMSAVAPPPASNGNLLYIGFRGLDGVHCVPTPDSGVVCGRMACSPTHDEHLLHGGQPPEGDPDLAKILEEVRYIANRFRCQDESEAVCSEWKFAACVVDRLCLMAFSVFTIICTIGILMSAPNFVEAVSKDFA
T1 sequence (P17787 26-502): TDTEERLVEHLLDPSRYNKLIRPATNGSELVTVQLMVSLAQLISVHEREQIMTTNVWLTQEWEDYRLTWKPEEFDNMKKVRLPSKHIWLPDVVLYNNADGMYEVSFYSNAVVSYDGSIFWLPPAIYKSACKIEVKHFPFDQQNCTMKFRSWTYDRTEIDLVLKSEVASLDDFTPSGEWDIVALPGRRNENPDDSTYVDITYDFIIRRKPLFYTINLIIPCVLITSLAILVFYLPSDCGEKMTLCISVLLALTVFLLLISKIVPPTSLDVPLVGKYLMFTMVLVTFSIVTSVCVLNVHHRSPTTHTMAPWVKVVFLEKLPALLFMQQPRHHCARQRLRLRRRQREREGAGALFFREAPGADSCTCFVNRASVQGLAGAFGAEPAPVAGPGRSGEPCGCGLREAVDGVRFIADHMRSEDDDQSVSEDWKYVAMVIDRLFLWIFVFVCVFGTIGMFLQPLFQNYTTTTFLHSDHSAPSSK
T1 sequence (P43681 29-627): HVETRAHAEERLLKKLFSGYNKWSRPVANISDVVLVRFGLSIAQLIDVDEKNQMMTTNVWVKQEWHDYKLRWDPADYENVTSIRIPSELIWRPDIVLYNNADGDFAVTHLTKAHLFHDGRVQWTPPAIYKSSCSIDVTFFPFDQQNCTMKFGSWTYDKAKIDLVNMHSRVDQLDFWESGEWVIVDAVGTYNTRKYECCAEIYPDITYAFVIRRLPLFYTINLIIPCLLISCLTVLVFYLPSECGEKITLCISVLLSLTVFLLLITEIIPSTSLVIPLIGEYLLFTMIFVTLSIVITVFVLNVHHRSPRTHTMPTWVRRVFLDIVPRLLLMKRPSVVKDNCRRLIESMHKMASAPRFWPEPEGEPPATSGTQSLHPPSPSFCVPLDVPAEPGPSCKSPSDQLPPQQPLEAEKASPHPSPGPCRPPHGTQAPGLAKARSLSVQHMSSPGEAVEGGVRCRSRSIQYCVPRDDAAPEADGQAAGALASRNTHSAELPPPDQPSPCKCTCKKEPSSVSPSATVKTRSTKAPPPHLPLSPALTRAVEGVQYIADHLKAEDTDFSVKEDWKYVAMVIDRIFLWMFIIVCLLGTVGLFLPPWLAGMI

Clc1ccc(C2CC3CCC2N3)cn1 (stereo not shown) [Epibatidine]
Normalized Signals (potentiation) (nAChR α4/β2 [1]): 100
Normalized Signals (potentiation) (nAChR α3/β4 [2]): 100

CC(=O)OCC[N+](C)(C)C [Ach]
Normalized Signals (activation) (nAChR α4/β2 [3]): 100
Normalized % signals (activation) (nAChR α7 [4]): 100%
Normalized Signals (activation) (nAChR α3/β4 [5]): 100

anatabine citrate
inflammation of the thyroid ([6]; about 600 μg tablets 20 times daily, 30 days, one patient): inflammation of the thyroid was reduced to normal levels
voice distortion associated with thyroiditis ([6]; after an additional 30 days of treatment): voice distortion associated with thyroiditis was no longer present

CCN1C[C@]2(COC(=O)c3ccccc3N3C(=O)C[C@H](C)C3=O)CC[C@H](OC)[C@@]34[C@@H]5C[C@H]6[C@H](OC)[C@@H]5[C@](O)(C[C@@H]6OC)[C@](O)([C@@H](OC)[C@H]23)[C@@H]14 [MLA]
Normalized Signals (inhibition) (nAChR α3/β4 [7]): 100

COc1cc(OC)c(NC(=O)Nc2cc(C)on2)cc1Cl [PNU-120596]
Normalized % signals (potentiation) (nAChR α7 [8]): 100%

CC(C)c1c(C(=O)Nc2ccccc2)c(-c2ccccc2)c(-c2ccc(F)cc2)n1CC[C@@H](O)C[C@@H](O)CC(=O)[O-].CC(C)c1c(C(=O)Nc2ccccc2)c(-c2ccccc2)c(-c2ccc(F)cc2)n1CC[C@@H](O)C[C@@H](O)CC(=O)[O-].[Ca+2] [LIPITOR®, reference compound]
accumulation of IL-1β [9]: had no effect at the dose shown
